According to publication PMC12583094, “A novel antioxidant peptide from black soybean [Glycine max (L.) Merr.] with verified MPO interaction and multi-scale antioxidant activity” (Frontiers in Nutrition, 2025):
Where two headings read alike, the source gives them in different places. No end group written: not given here.

Legend:
[1] = cited from earlier work; for radical scavenging activity: peptides from Thunnus albacares protein hydrolysates; for antioxidant bioactivity: peptides from sturgeon ovarian protein hydrolysates; for antioxidant activity and free radical scavenging: peptides from black soybean processing by-products
Source text: Black soybean [Glycine max (L.) Merr.], belonging to the family Fabaceae, subfamily Faboideae, genus Glycine, and subgenus Soja, is a traditional legume crop characterized by its black seed coat. It has been cultivated in China for thousands of years, and China remains the largest producer and consumer of soybeans globally, with substantial production and consumption of black soybean in particular ([8]).

[2] = ABTS radical scavenging assay; format: biochemical; conditions: ABTS solution diluted 20-fold with anhydrous ethanol, 30 min dark, 734 nm, mean ± SD, n = 3
Procedure: For the ABTS assay, ABTS radical solution was prepared by mixing Reagent A and Reagent B (from the assay kit) at a 1:1 volume ratio, followed by incubation in the dark for 12 h. The resulting ABTS solution was diluted 20-fold with anhydrous ethanol before use. The blank, control, and sample solutions were prepared in the same manner as in the DPPH assay, followed by 30 min of dark incubation. Absorbance was measured at 734 nm. The radical scavenging activity was calculated using the formula reported by Thanyaporn Aursuwanna et al. ([22]).

[3] = DPPH radical scavenging assay; format: biochemical; conditions: 50 μL + 450 μL of 0.1 mM DPPH in anhydrous ethanol, dark, room temperature, 30 min, 517 nm, mean ± SD, n = 3
Procedure: Prior to the assay, the microplate reader was preheated for 1 h. The peptide samples were dissolved in sterile water to prepare a concentration gradient of 0.1, 1, 5, and 10 mg/mL. For the DPPH assay, 50 μL of sterile water and 450 μL of DPPH solution (0.1 mM in anhydrous ethanol) were added to the blank tube. For the control tube, 50 μL of peptide solution and 450 μL of anhydrous ethanol were mixed. For the sample tubes, 50 μL of peptide solution and 450 μL of DPPH solution were combined. All mixtures were incubated in the dark at room temperature for 30 min. Absorbance was measured at 517 nm using a UV–visible spectrophotometer.

[4] = peptide from cherry seeds; cited from earlier work
[5] = peptide from cherry seeds, molecular dynamics simulation; cited from earlier work
Source text: The root mean square deviation (RMSD) value reflects the deviation of the complex from its initial conformation over the course of the simulation. RMSD fluctuations are directly indicative of conformational stability, with deviations below 0.5 nm generally considered acceptable ([34]). […] In this surface, blue to white regions indicate low free energy value, whereas yellow to red regions reflect higher energy states. […] For the MPO–[…] complex, the energy p ...

[6] = cited from earlier work; for ABTS radical scavenging rate at 1 mg/mL / DPPH radical scavenging rate at 1 mg/mL: peptide from Glycine max hydrolysate
Source text: (§1) Similarly, Zhang et al. identified two antioxidant peptides, VVFVDRL and […], from Glycine max hydrolysate, both of which contain N-terminal valine residues. […] This enhanced activity was attributed to the presence of repeating amino acids within the peptide sequences, a feature that has also been associated with stronger bioactivity in antioxidant peptid ...

MPO = conditions: cited from earlier work
Source text: as §1

HaCaT cells [7] = format: cell-based, human; conditions: 24 h, 1000 μg/mL
Procedure: HaCaT cell recovery, culture, and subculture were performed with reference to the method described by Yusha Zi et al., with some modifications ([23]). For recovery, cryopreserved HaCaT cells were retrieved from liquid nitrogen storage and quickly thawed in a 37 °C water bath with gentle shaking. Just before complete thawing, the tube was removed from the water bath, and the cell suspension was immediately transferred into a 15 mL centrifuge tube containing 9 mL of pre-warmed complete medium. The complete medium consisted of DMEM supplemented with 10% fetal bovine serum (FBS) and 1% penicillin–streptomycin (P/S). Cells were centrifuged at 800 rpm for 5 min at 4 °C. After discarding the supernatant, the cell pellet was resuspended in 5 mL of fresh complete medium and transferred to a culture flask equipped with a ventilated cap. Cells were incubated in a humidified incubator at 37 °C with 5% CO₂ and 95% humidity. For subculturing, when cell confluence reached approximately 80%, the medium was discarded, and the cells were gently rinsed three times with 2 mL of PBS. […] The plate was incubated for an appropriate period, and the absorbance at 450 nm was measured using a microplate reader. Cell viability was calculated using the following formula: Cell viability(%)=100%×(ODsample−ODblank)/(ODcontrol−ODblank). […] The absorbance was measured and cell viability was calculated under the same conditions.

HaCaT cells [8] = test: CCK8 cell viability, concentration screening in HaCaT cells; format: cell-based, human; conditions: 24 h, CCK8, 450 nm, vs control, n = 3
Procedure: HaCaT cell recovery, culture, and subculture were performed with reference to the method described by Yusha Zi et al., with some modifications ([23]). For recovery, cryopreserved HaCaT cells were retrieved from liquid nitrogen storage and quickly thawed in a 37 °C water bath with gentle shaking. Just before complete thawing, the tube was removed from the water bath, and the cell suspension was immediately transferred into a 15 mL centrifuge tube containing 9 mL of pre-warmed complete medium. The complete medium consisted of DMEM supplemented with 10% fetal bovine serum (FBS) and 1% penicillin–streptomycin (P/S). Cells were centrifuged at 800 rpm for 5 min at 4 °C. After discarding the supernatant, the cell pellet was resuspended in 5 mL of fresh complete medium and transferred to a culture flask equipped with a ventilated cap. Cells were incubated in a humidified incubator at 37 °C with 5% CO₂ and 95% humidity.
For subculturing, when cell confluence reached approximately 80%, the medium was discarded, and the cells were gently rinsed three times with 2 mL of PBS. Then, 1 mL of 0.25% trypsin solution was added, and the flask was incubated at 37 °C for about 1 min. Once the cells became round and partially detached (as observed under a microscope), 3 mL of complete medium was added to terminate the digestion. The cell suspension was gently pipetted to disperse the cells and transferred to a 15 mL centrifuge tube. After centrifugation at 800 rpm for 5 min at 4 °C, the supernatant was discarded. The pellet was resuspended in fresh medium and seeded into new culture flasks at a ratio of 1:3, followed by incubation under the same culture conditions.
After digestion and resuspension, HaCaT cells were seeded into a 96-well plate at a concentration of 1 × 10^^4 cells/ml, with 100 μL of complete culture medium added to each well. Three wells with no cells were treated with an equal volume of complete culture medium as the blank group. The cells were incubated for 24 h to allow attachment. For the experiment, the control and blank groups were replaced with an equal volume of fresh medium, while the treatment groups were treated with a concentration gradient of 100, 200, 500, 1,000, and 1,500 μg/mL H2O2 and peptide samples. The H2O2 group was incubated for 1 h, while the peptide sample group was incubated for 24 h. After incubation, the original medium was discarded, and 100 μL of CCK8 working solution (prepared from 90% DMEM + 10% CCK8 reagent) was added to each well. The blank group, which contained no cells, was used as the reference. The plate was incubated for an appropriate period, and the absorbance at 450 nm was measured using a microplate reader. Cell viability was calculated using the following formula:
Cell viability(%)=100%×(ODsample−ODblank)/(ODcontrol−ODblank).

[9] = peptide from foxtail millet prolamin

In the case of “ACGSDGK [antioxidant peptide from Thunnus albacares protein hydrolysates]”, the radical scavenging activity [1] is given as “significant radical scavenging activity”.
For “FDWDRL [antioxidant peptide from sturgeon ovarian protein hydrolysates]”, the antioxidant bioactivity [1] is given as “demonstrated antioxidant bioactivity”.
In the case of “FEGPPFKF [antioxidant peptide from sturgeon ovarian protein hydrolysates]”, the antioxidant bioactivity [1] is listed as “demonstrated antioxidant bioactivity”.
For Glutathione [GSH], the “ABTS radical scavenging rate at 0.1 mg/mL” value ([2]; 0.1 mg/mL) was 24.52 ± 4.01%, the “ABTS radical scavenging rate at 1 mg/mL” value ([2]; 1 mg/mL) was 40.76 ± 3.01% and the “ABTS radical scavenging rate at 5 mg/mL” value ([2]; 5 mg/mL) was 60.28 ± 3.58%. For the same substance, the “ABTS radical scavenging rate at 10 mg/mL” value ([2]; 10 mg/mL) was 82.92 ± 1.27%, the “DPPH radical scavenging rate at 0.1 mg/mL” value ([3]; 0.1 mg/mL peptide solution) was 27.72 ± 2.86% and the “DPPH radical scavenging rate at 1 mg/mL” value ([3]; 1 mg/mL peptide solution) was 54.36 ± 3.61%. For the same substance, the “DPPH radical scavenging rate at 5 mg/mL” value ([3]; 5 mg/mL peptide solution) was 69.01 ± 4.68% and the “DPPH radical scavenging rate at 10 mg/mL” value ([3]; 10 mg/mL peptide solution) was 84.87 ± 1.39%.
In the case of “IVPK [peptide from black soybean processing by-products]”, the “antioxidant activity and free radical scavenging” value [1] is given as “exhibited antioxidant activity and free radical scavenging capacity”.
In the case of “KFCSGHA [antioxidant peptide from Thunnus albacares protein hydrolysates]”, the radical scavenging activity [1] is listed as “significant radical scavenging activity”.
For “LVPK [peptide from black soybean processing by-products]”, the “antioxidant activity and free radical scavenging” value [1] is given as “exhibited antioxidant activity and free radical scavenging capacity”.
For “LYSPH [antioxidant peptide LYSPH, derived from cherry seeds]”, the docking binding energy [4] is given as -7.9 kcal/mol and the “number of hydrogen bonds” value [5] is given as 3 ± 1 hydrogen bonds.
For “VIYVVDLR [antioxidant peptide from Glycine max hydrolysate]”, the “ABTS radical scavenging rate at 1 mg/mL” value [6] is listed as ~50% and the “DPPH radical scavenging rate at 1 mg/mL” value [6] is listed as “approximately 40%”.
For “VLIPMP [antioxidant peptide from foxtail millet prolamin]”, the “number of hydrogen bonds formed with MPO” value (MPO) is listed as “higher than that observed for VPNHFNAP”, the “stability of the VLIPMP–MPO complex” value (MPO; molecular dynamics simulations) is listed as “confirmed the stability of the VLIPMP–MPO complex” and the “binding free energy calculated by MM-PBSA” value (MPO; with MPO) is listed as -40.83 ± 7.64 kcal/mol. For the same substance, the “ABTS IC₅₀” value [6, 9] was 2.33 mg/mL and the “DPPH IC₅₀” value [6, 9] was 4.45 mg/mL.
In the case of VPNHFNAP, the “HaCaT cell viability, peptide pretreatment then H2O2” value (HaCaT cells [7]) is reported as 64.38 ± 4.22%, the “effect on HaCaT cell viability, 1500 μg/mL” value (HaCaT cells [8]; peptide 1500 μg/mL) is reported as “a marked decrease” and the “effect on HaCaT cell viability, 100 to 1,000 μg/mL” value (HaCaT cells [8]; peptide 100 to 1,000 μg/mL) is reported as “did not cause significant changes in cell viability”.
For “VVFVDRL [antioxidant peptide from Glycine max hydrolysate]”, the “ABTS radical scavenging rate at 1 mg/mL” value [6] is listed as ~50% and the “DPPH radical scavenging rate at 1 mg/mL” value [6] is listed as “approximately 40%”.
